According to ChEMBL document CHEMBL5614431, “Discovery of 1,3,4-oxadiazoles with slow-action activity against Plasmodium falciparum malaria parasites” (Eur J Med Chem, 2024):
pIC50: −log10 of the molar value.

system: Plasmodium falciparum; assay: Antimalarial activity against synchronous ring stage Plasmodium falciparum 3D7 infected in human Erythrocyte assessed as inhibition of parasite growth incubated for 48 hrs by [3H]-hypoxanthine incorporation assay; format: functional, organism-based; details: 3D7, Erythrocyte

Row | SMILES | pIC50
1 | C[C@@H]1CCC[C@H](C)N1c1nnc(S(=O)(=O)C2CCCCC2)o1 | < 4.90
2 | O=S(=O)(CC1CCC1)c1nnc(N2CCOCC2)o1 | < 5.00
3 | O=S(=O)(c1nnc(N2CCC3(CC2)COC3)o1)C1CCCCC1 | < 5.00
4 | Cc1ccc(C)c(CS(=O)(=O)c2nnc(N3CCOCC3)o2)c1 | 4.91
5 | O=S(=O)(c1nnc(N2CCCCCC2)o1)C1CCCCC1 | < 5.00
6 | C[C@@H]1CN(c2nnc(S(=O)(=O)C3CCCCC3)o2)C[C@H](C)O1 | < 4.60
7 | CC(C)(C)CS(=O)(=O)c1nnc(N2CCOCC2)o1 | < 5.00
8 | O=S(=O)(CC1CCCC1)c1nnc(N2CCOCC2)o1 | < 5.00
9 | CC(C)(C)OC(=O)[C@@H]1CCCN1c1nnc(S(=O)(=O)C2CCCCC2)o1 | < 4.60
10 | O=S(=O)(c1nnc(N2CC3CC2CO3)o1)C1CCCCC1 (racemic) | < 4.30
11 | CC1CCN(c2nnc(S(=O)(=O)C3CCCCC3)o2)CC1 | 4.41

system: Plasmodium falciparum; assay: Antimalarial activity against synchronous ring stage Plasmodium falciparum 3D7 infected in human Erythrocyte assessed as inhibition of parasite growth incubated for 96 hrs by [3H]-hypoxanthine incorporation assay; format: functional, organism-based; details: 3D7, Erythrocyte

Row | SMILES | pIC50
12 | C[C@@H]1CCC[C@H](C)N1c1nnc(S(=O)(=O)C2CCCCC2)o1 | 7.10
13 | O=S(=O)(CC1CCC1)c1nnc(N2CCOCC2)o1 | 6.28
14 | O=S(=O)(c1nnc(N2CCC3(CC2)COC3)o1)C1CCCCC1 | 7.00
15 | Cc1ccc(C)c(CS(=O)(=O)c2nnc(N3CCOCC3)o2)c1 | 6.08
16 | O=S(=O)(c1nnc(N2CCCCCC2)o1)C1CCCCC1 | 7.05
17 | C[C@@H]1CN(c2nnc(S(=O)(=O)C3CCCCC3)o2)C[C@H](C)O1 | 6.54
18 | CC(C)(C)CS(=O)(=O)c1nnc(N2CCOCC2)o1 | 5.87
19 | O=S(=O)(CC1CCCC1)c1nnc(N2CCOCC2)o1 | 6.19
20 | CC(C)(C)OC(=O)[C@@H]1CCCN1c1nnc(S(=O)(=O)C2CCCCC2)o1 | 5.58
21 | O=S(=O)(c1nnc(N2CC3CC2CO3)o1)C1CCCCC1 (racemic) | 5.80
22 | CC1CCN(c2nnc(S(=O)(=O)C3CCCCC3)o2)CC1 | 6.66

system: not listed separately; assay: Selectivity ratio of IC50 for antimalarial activity against synchronous ring stage Plasmodium falciparum 3D7 infected in human Erythrocyte assessed as inhibition of parasite growth incubated for 48 hrs by [3H]-hypoxanthine incorporation assay to IC50 for antimalarial activity against synchronous ring stage Plasmodium falciparum 3D7 infected in human Erythrocyte assessed as inhibition of parasite growth incubated for 48 hrs by [3H]-hypoxanthine incorporation assay; format: functional; details: not given

Row | SMILES | Ratio IC50
23 | C[C@@H]1CCC[C@H](C)N1c1nnc(S(=O)(=O)C2CCCCC2)o1 | >165
24 | O=S(=O)(CC1CCC1)c1nnc(N2CCOCC2)o1 | >19
25 | O=S(=O)(c1nnc(N2CCC3(CC2)COC3)o1)C1CCCCC1 | >102
26 | Cc1ccc(C)c(CS(=O)(=O)c2nnc(N3CCOCC3)o2)c1 | 15
27 | O=S(=O)(c1nnc(N2CCCCCC2)o1)C1CCCCC1 | >114
28 | C[C@@H]1CN(c2nnc(S(=O)(=O)C3CCCCC3)o2)C[C@H](C)O1 | >85
29 | CC(C)(C)CS(=O)(=O)c1nnc(N2CCOCC2)o1 | >8
30 | O=S(=O)(CC1CCCC1)c1nnc(N2CCOCC2)o1 | >16
31 | CC(C)(C)OC(=O)[C@@H]1CCCN1c1nnc(S(=O)(=O)C2CCCCC2)o1 | >9
32 | O=S(=O)(c1nnc(N2CC3CC2CO3)o1)C1CCCCC1 (racemic) | >32
33 | CC1CCN(c2nnc(S(=O)(=O)C3CCCCC3)o2)CC1 | 182

system: not listed separately; assay: Cytotoxicity against human NFF cells assessed as reduction in cell viability incubated for 72 hrs by SRB assay; format: toxicity, cell-based; details: not given

Row | SMILES | IC50 at 72 h
34 | C[C@@H]1CCC[C@H](C)N1c1nnc(S(=O)(=O)C2CCCCC2)o1 | > 100 µM
35 | O=S(=O)(CC1CCC1)c1nnc(N2CCOCC2)o1 | > 100 µM
36 | O=S(=O)(c1nnc(N2CCC3(CC2)COC3)o1)C1CCCCC1 | > 100 µM
37 | Cc1ccc(C)c(CS(=O)(=O)c2nnc(N3CCOCC3)o2)c1 | 20.4 µM
38 | O=S(=O)(c1nnc(N2CCCCCC2)o1)C1CCCCC1 | > 100 µM
39 | C[C@@H]1CN(c2nnc(S(=O)(=O)C3CCCCC3)o2)C[C@H](C)O1 | > 100 µM
40 | CC(C)(C)CS(=O)(=O)c1nnc(N2CCOCC2)o1 | > 100 µM
41 | O=S(=O)(CC1CCCC1)c1nnc(N2CCOCC2)o1 | > 100 µM
42 | CC(C)(C)OC(=O)[C@@H]1CCCN1c1nnc(S(=O)(=O)C2CCCCC2)o1 | > 100 µM
43 | O=S(=O)(c1nnc(N2CC3CC2CO3)o1)C1CCCCC1 (racemic) | > 100 µM
44 | CC1CCN(c2nnc(S(=O)(=O)C3CCCCC3)o2)CC1 | > 50 µM

system: not listed separately; assay: Selectivity index, ratio of IC50 for cytotoxicity against human NFF cells to IC50 for antimalarial activity against synchronous ring stage Plasmodium falciparum 3D7 infected in human Erythrocyte assessed as inhibition of parasite growth incubated for 96 hrs; format: toxicity, cell-based; details: read-out: Ratio IC50

Row | SMILES | selectivity ratio at 96 h
45 | C[C@@H]1CCC[C@H](C)N1c1nnc(S(=O)(=O)C2CCCCC2)o1 | > 1670
46 | O=S(=O)(CC1CCC1)c1nnc(N2CCOCC2)o1 | > 186
47 | O=S(=O)(c1nnc(N2CCC3(CC2)COC3)o1)C1CCCCC1 | > 1020
48 | Cc1ccc(C)c(CS(=O)(=O)c2nnc(N3CCOCC3)o2)c1 | 24
49 | O=S(=O)(c1nnc(N2CCCCCC2)o1)C1CCCCC1 | > 1150
50 | C[C@@H]1CN(c2nnc(S(=O)(=O)C3CCCCC3)o2)C[C@H](C)O1 | > 345
51 | CC(C)(C)CS(=O)(=O)c1nnc(N2CCOCC2)o1 | > 79
52 | O=S(=O)(CC1CCCC1)c1nnc(N2CCOCC2)o1 | > 158
53 | CC(C)(C)OC(=O)[C@@H]1CCCN1c1nnc(S(=O)(=O)C2CCCCC2)o1 | > 38
54 | O=S(=O)(c1nnc(N2CC3CC2CO3)o1)C1CCCCC1 (racemic) | > 63
55 | CC1CCN(c2nnc(S(=O)(=O)C3CCCCC3)o2)CC1 | > 227

system: Plasmodium falciparum; assay: Antimalarial activity against multidrug-resistant synchronous ring stage Plasmodium falciparum Dd2 infected in human Erythrocyte assessed as inhibition of parasite growth incubated for 48 hrs by [3H]-hypoxanthine incorporation assay; format: functional, organism-based; details: not given

Row | SMILES | pIC50
56 | Cc1ccc(C)c(CS(=O)(=O)c2nnc(N3CCOCC3)o2)c1 | 4.89

system: Plasmodium falciparum; assay: Antimalarial activity against multidrug-resistant synchronous ring stage Plasmodium falciparum Dd2 infected in human Erythrocyte assessed as inhibition of parasite growth incubated for 96 hrs by [3H]-hypoxanthine incorporation assay; format: functional, organism-based; details: not given

Row | SMILES | pIC50
57 | Cc1ccc(C)c(CS(=O)(=O)c2nnc(N3CCOCC3)o2)c1 | 6.24

system: not listed separately; assay: Selectivity ratio of IC50 for antimalarial activity against multidrug-resistant synchronous ring stage Plasmodium falciparum Dd2 infected in human Erythrocyte assessed as inhibition of parasite growth incubated for 48 hrs by [3H]-hypoxanthine incorporation assay to IC50 for antimalarial activity against multidrug-resistant synchronous ring stage Plasmodium falciparum Dd2 infected in human …; format: functional; details: not given

Row | SMILES | Ratio IC50
58 | Cc1ccc(C)c(CS(=O)(=O)c2nnc(N3CCOCC3)o2)c1 | 23

system: Plasmodium falciparum; assay: Resistance index, ratio of IC50 for antimalarial activity against multidrug-resistant synchronous ring stage Plasmodium falciparum Dd2 infected in human Erythrocyte assessed as inhibition of parasite growth incubated for 96 hrs by [3H]-hypoxanthine incorporation assay to IC50 for antimalarial activity against synchronous ring stage Plasmodium falciparum 3D7 infected in human Erythrocyte assessed …; format: toxicity, organism-based; details: not given

Row | SMILES | Ratio IC50
59 | Cc1ccc(C)c(CS(=O)(=O)c2nnc(N3CCOCC3)o2)c1 | 0.7

system: Plasmodium falciparum; assay: Antimalarial activity against synchronous ring stage Plasmodium falciparum 3D7 infected in human Erythrocyte assessed as inhibition of parasite growth incubated for 96 hrs supplemented with IPP by [3H]-hypoxanthine incorporation assay; format: functional, organism-based; details: 3D7, Erythrocyte

Row | SMILES | pIC50
60 | Cc1ccc(C)c(CS(=O)(=O)c2nnc(N3CCOCC3)o2)c1 | 6.08

system: not listed separately; assay: Selectivity ratio of IC50 for antimalarial activity against synchronous ring stage Plasmodium falciparum 3D7 infected in human Erythrocyte assessed as inhibition of parasite growth incubated for 96 hrs supplemented with IPP by [3H]-hypoxanthine incorporation assay to IC50 for antimalarial activity against synchronous ring stage Plasmodium falciparum 3D7 infected in human Erythrocyte assessed as …; format: functional; details: not given

Row | SMILES | Ratio IC50
61 | Cc1ccc(C)c(CS(=O)(=O)c2nnc(N3CCOCC3)o2)c1 | 1

system: not listed separately; assay: Metabolic stability in human liver microsomes assessed as half life; format: ADME, Microsome; details: not given

Row | half-life | SMILES
62 | 112 min | O=S(=O)(c1nnc(N2CCC3(CC2)COC3)o1)C1CCCCC1
63 | 68 min | O=S(=O)(c1nnc(N2CCCCCC2)o1)C1CCCCC1

Row | SMILES | half-life
64 | Cc1ccc(C)c(CS(=O)(=O)c2nnc(N3CCOCC3)o2)c1 | 5 min

system: not listed separately; assay: Metabolic stability in mouse liver microsomes assessed as half life; format: ADME, Microsome; details: not given

Row | half-life | SMILES
65 | 18 min | O=S(=O)(c1nnc(N2CCC3(CC2)COC3)o1)C1CCCCC1
66 | 7 min | O=S(=O)(c1nnc(N2CCCCCC2)o1)C1CCCCC1

Row | SMILES | half-life
67 | Cc1ccc(C)c(CS(=O)(=O)c2nnc(N3CCOCC3)o2)c1 | 3 min

system: not listed separately; assay: Apparent permeability of the compound in human Caco-2 cells across apical to basolateral side; format: ADME, cell-based; details: not given

Row | SMILES | Papp A→B
68 | O=S(=O)(c1nnc(N2CCC3(CC2)COC3)o1)C1CCCCC1 | 44 ×10⁻⁶ cm/s
69 | Cc1ccc(C)c(CS(=O)(=O)c2nnc(N3CCOCC3)o2)c1 | 39 ×10⁻⁶ cm/s

system: not listed separately; assay: Apparent half life in non fasted female BALB/c mouse at 100 mg/kg, po via gavage and measured upto 24 hrs by LC-MS analysis; format: ADME, organism-based; details: in vivo, read-out: t1/2(app) (converted)

Row | half-life | SMILES
70 | 96 min | C[C@@H]1CCC[C@H](C)N1c1nnc(S(=O)(=O)C2CCCCC2)o1
71 | 57 min | O=S(=O)(CC1CCC1)c1nnc(N2CCOCC2)o1

system: not listed separately; assay: Cmax in non fasted female BALB/c mouse plasma at 100 mg/kg, po via gavage and measured upto 24 hrs by LC-MS analysis; format: ADME, organism-based; details: not given

Row | Cmax | SMILES
72 | 310 nM | C[C@@H]1CCC[C@H](C)N1c1nnc(S(=O)(=O)C2CCCCC2)o1
73 | 2140 nM | O=S(=O)(CC1CCC1)c1nnc(N2CCOCC2)o1

system: not listed separately; assay: Tmax in non fasted female BALB/c mouse at 100 mg/kg, po via gavage and measured upto 24 hrs by LC-MS analysis; format: ADME, organism-based; details: in vivo

Row | Tmax | SMILES
74 | 30 min | C[C@@H]1CCC[C@H](C)N1c1nnc(S(=O)(=O)C2CCCCC2)o1
75 | 15 min | O=S(=O)(CC1CCC1)c1nnc(N2CCOCC2)o1

system: not listed separately; assay: AUC (0 to t) in non fasted female BALB/c mouse plasma at 100 mg/kg, po via gavage and measured after 4 hrs by LC-MS analysis; format: ADME, organism-based; details: not given

Row | AUC(0-t) at 4 h | SMILES
76 | 3.61 µM·h | O=S(=O)(CC1CCC1)c1nnc(N2CCOCC2)o1

system: not listed separately; assay: AUC (0 to t) in non fasted female BALB/c mouse plasma at 100 mg/kg, po via gavage and measured after 7.5 hrs by LC-MS analysis; format: ADME, organism-based; details: not given

Row | AUC(0-t) at 7.5 h | SMILES
77 | 0.39 µM·h | C[C@@H]1CCC[C@H](C)N1c1nnc(S(=O)(=O)C2CCCCC2)o1

system: not listed separately; assay: AUC (0 to infinity) in non fasted female BALB/c mouse at 100 mg/kg, po via gavage and measured upto 24 hrs by LC-MS analysis; format: ADME, organism-based; details: in vivo

Row | AUC(0-inf) | SMILES
78 | 0.41 µM·h | C[C@@H]1CCC[C@H](C)N1c1nnc(S(=O)(=O)C2CCCCC2)o1
79 | 3.91 µM·h | O=S(=O)(CC1CCC1)c1nnc(N2CCOCC2)o1

system: not listed separately; assay: Chemical stability of the compound in 1:1 mixture of 6M aqueous hydrochloric acid/THF assessed as degradation measured over 20 hrs; format: physicochemical; details: buffer

Row | Stability | SMILES
80 | Stable | C[C@@H]1CCC[C@H](C)N1c1nnc(S(=O)(=O)C2CCCCC2)o1
